The text below walks through data of PubChem BioAssay AID2037 (NMMLSC, 2009).

For the assay, the target named is Cell division control protein 42 homolog (Homo sapiens) (UniProt P60953). The assay is described as follows: wild-type Cdc42 nucleotide-binding inhibitors, SAR follow-up, biochemical, bead-based multiplex flow cytometry, oxadiazole series (AID 2037). As to conditions: GST-Cdc42 beads, Bodipy-FL-GTP binding, Ki calculated from EC50.
Cell division control protein 42 homolog (Homo sapiens), sequence (P60953 whole entry, looked up): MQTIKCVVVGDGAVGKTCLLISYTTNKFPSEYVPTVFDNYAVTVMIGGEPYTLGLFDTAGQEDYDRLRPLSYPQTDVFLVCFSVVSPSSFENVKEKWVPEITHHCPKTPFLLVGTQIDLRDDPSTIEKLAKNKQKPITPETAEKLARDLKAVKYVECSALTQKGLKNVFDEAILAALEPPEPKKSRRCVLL
For `Cc1ccc(C)c(N2CCN(C(=O)CCc3nc(-c4ccc(C(F)(F)F)cc4)no3)CC2)c1`, the Ki was 680 nM.

For the molecule `COc1ccc(-c2noc(CCC(=O)N3CCN(c4cc(C)ccc4C)CC3)n2)cc1`, the Ki was 580 nM.

With `Cc1ccc(C)c(N2CCN(C(=O)CCc3nc(-c4cccc(Br)c4)no3)CC2)c1`, the Ki is 450 nM.

Turning to `Cc1ccc(C)c(N2CCN(C(=O)CCc3nc(-c4ccccc4Br)no3)CC2)c1`, the Ki is 490 nM.

In the case of `Cc1ccc(-c2noc(CCC(=O)N3CCN(c4cc(C)ccc4C)CC3)n2)cc1`, the Ki was 920 nM.

As for `COc1ccccc1-c1noc(CCC(=O)N2CCN(c3cc(C)ccc3C)CC2)n1`, the Ki is 330 nM.

`Cc1ccc(C)c(N2CCN(C(=O)CCc3nc(-c4ccc(N(C)C)cc4)no3)CC2)c1`: the Ki is 250 nM.

On to `Cc1cccc(-c2noc(CCC(=O)N3CCN(c4cc(C)ccc4C)CC3)n2)c1`, for which the inhibition constant (Ki) is 220 nM.

Consider `COc1ccc(-c2noc(CCC(=O)N3CCN(c4cccc(OC)c4)CC3)n2)cc1`, for which the Ki was 2550 nM.

As for `COc1ccc(-c2cccc(CCC(=O)N3CCN(c4cc(C)ccc4C)CC3)c2)cc1`, the Ki was 780 nM.

`Cc1ccc(C)c(N2CCN(C(=O)CCc3nc(-c4ccc(Cl)cc4)no3)CC2)c1`: the Ki is 360 nM.

With `Cc1ccc(C)c(N2CCN(C(=O)CCc3nc(-c4ccccc4)no3)CC2)c1`, the Ki is 850 nM.

Take `COc1ccc(-c2noc(CCC(=O)N3CCN(c4ccccc4C)CC3)n2)cc1`: the Ki is 360 nM.

Turning to `COc1ccc(-c2noc(CCC(=O)N3CCN(c4ccccc4Br)CC3)n2)cc1`, the Ki was 490 nM.

Take `COc1ccc(-c2noc(CCCC(=O)N3CCN(c4cc(C)ccc4C)CC3)n2)cc1`: the inhibitory constant (Ki) is 1310 nM.

`Cc1ccc(C)c(N2CCN(C(=O)CCc3nc(-c4ccc(F)cc4)no3)CC2)c1`: the Ki is 80 nM.

As for `COc1ccc(-c2noc(CCC(=O)N3CCC(c4cc(C)ccc4C)CC3)n2)cc1`, the Ki is 300 nM.

For `Cc1ccc(C)c(N2CCN(C(=O)CCc3nc(-c4cccc(Cl)c4)no3)CC2)c1`, the Ki was 460 nM.

`COc1ccc(-c2noc(CCC(=O)N3CCN(c4cccc(C)c4C)CC3)n2)cc1`: the Ki is 240 nM.

With `COc1ccc(-c2noc(CCC(=O)N3CCN(c4cccc(C(F)(F)F)c4)CC3)n2)cc1`, the Ki is 410 nM.

With `Cc1ccc(C)c(N2CCN(C(=O)CCc3nc(-c4ccc(Br)cc4)no3)CC2)c1`, the Ki is 340 nM.

On to `COc1ccc(-c2noc(CCC(=O)N3CCN(c4ccccc4F)CC3)n2)cc1`, for which the Ki is 140 nM.

Take `COc1ccc(-c2coc(CCC(=O)N3CCN(c4cc(C)ccc4C)CC3)n2)cc1`: the Ki was 480 nM.

Take `COc1ccc(-c2noc(CCC(=O)N3CCN(c4ccc(C)cc4)CC3)n2)cc1`: the Ki is 120 nM.

Regarding `COc1ccc(-c2noc(CCC(=O)N3CCN(c4ccccc4Cl)CC3)n2)cc1`, the inhibition constant (Ki) was 170 nM.

On to `COc1ccc(-c2noc(CCC(=O)N3CCN(c4ccc(OC)cc4)CC3)n2)cc1`, for which the Ki is 100 nM.

With `Cc1ccc(C)c(N2CCN(C(=O)CCc3nc(-c4ccccc4C(F)(F)F)no3)CC2)c1`, the Ki is 1050 nM.

On to `COc1ccc(-c2noc(CCC(=O)N3CCN(c4ccccc4C(F)(F)F)CC3)n2)cc1`, for which the Ki is 420 nM.

For the molecule `COc1cccc(-c2noc(CCC(=O)N3CCN(c4cc(C)ccc4C)CC3)n2)c1`, the Ki was 590 nM.
